Here are results for nine compounds from patent US11098040B2, “Compounds and methods of use” (Ferro Therapeutics, Inc., priority 2018, dated 2021).

The structures appear in SMILES notation.

One experiment has as its system SJSA-1. The experiment in a line: Cell viability assay (CellTiter Glo), osteosarcoma SJSA-1. The class given is cell-based. Particulars: Homo sapiens, 96 hours. How it is done:
(§1) Cell viability assay was performed to assess the potency of the compounds in human cancer cell lines KP4 (pancreatic ductal adenocarcinoma), MiaPaCa-2 (pancreatic carcinoma), AsPC-1 (pancreatic adenocarcinoma, ascites), 143B (osteosarcoma), and SJSA-1 (osteosarcoma). Selected compounds were also assayed in a human breast epithelial cell line MCF-10A, a nontumorigenic cell line as a control to assess differential activity. Cells at a density of 500-5,000 cells/well were seeded in 96-well plates and incubated at 37° C. overnight. A series of 9 different concentrations of compound stocks (500×) were created by 3-fold serial dilution in DMSO. These compounds were further diluted in culture media and then added to cells so that the final DMSO concentration was equal to 0.25% or less. After 96 hours of incubation, 50 μL of CellTiter Glo reagent (Promega) was added to each well and luminescence was measured after 10 minutes using EnVision (PerkinElmer). Compounds titrated from top concentration of up to 30 μM. The select compounds were tested initially from 30 μM as the top concentration in duplicates (range of 4.6 nM-30 μM). […] Luminescence from cells treated with DMSO alone was set as Max and % of inhibition was calculated as follows: Inhibition %=(Max-Sample value)/Max*100. Data was analyzed using XL-fit software (ID Business Solutions Ltd.). IC50, relative IC50, or % of top inhibition was calculated.
(§2) The results of the assay in sarcoma cell lines are given in Table 21a for HT-1080 luc2 (fibrosarcoma expressing a luciferase gene), Table 21b for 143B (osteosarcoma), and Table 21c for SJSA-1 (osteosarcoma).
Background: Cellular ATP, detected with luciferase, serves as a proxy for viable cell number.
What is called IC50 is the point on the concentration scale where inhibition reaches its midpoint. In turn, `COC(=O)c1ccc([C@H]2c3[nH]c4ccccc4c3C[C@H](C(=O)OC(C)(C)C)N2C(=O)CCl)cc1` [Example 2] returned an IC50 of 236 nM.

`COC(=O)[C@H]1Cc2c([nH]c3ccccc23)[C@H](c2ccc(C(=O)OC[C@]34C[C@H]5C[C@H](C[C@H](C5)C3)C4)cc2)N1C(=O)CCl` [Example 6] registered a concentration for half-maximal inhibition (IC50) of 146 nM.

In turn, `CNC(=O)c1ccc([C@H]2c3[nH]c4ccccc4c3C[C@H](C(=O)OC)N2C(=O)CCl)cc1` [Example 7] yielded an IC50 of 687 nM.

The compound `COC(=O)[C@H]1Cc2c([nH]c3ccccc23)[C@H](c2ccc(C(=O)N(C)C)cc2)N1C(=O)CCl` [Example 8] came in with an IC50 of 250 nM.

As to `COC(=O)[C@H]1Cc2c([nH]c3ccccc23)[C@H](c2ccc(C(=O)NC(C)(C)C)cc2)N1C(=O)CCl` [Example 9], it took 69 nM to reach half-maximal inhibition (IC50).

Compound `COC(=O)[C@H]1Cc2c([nH]c3ccccc23)[C@H](c2ccc(C(=O)NC(C(=O)O)C(C)(C)C)cc2)N1C(=O)CCl` (some centres unmarked) [Example 10] displayed an IC50 of 15300 nM.

`CC(C)(C)OC(=O)[C@H]1Cc2c([nH]c3ccccc23)[C@H](c2ccc([N+](=O)[O-])cc2)N1C(=O)CCl` [Example 11] came in with a concentration for half-maximal inhibition (IC50) of 327 nM.

`COC(=O)[C@H]1Cc2c([nH]c3ccccc23)[C@H](c2ccc(OC(C)=O)cc2)N1C(=O)CCl` [Example 12] had a half-inhibitory concentration (IC50) of 149 nM.

In turn, `COC(=O)[C@H]1Cc2c([nH]c3ccccc23)[C@H](c2ccc(OC(=O)C(C)(C)C)cc2)N1C(=O)CCl` [Example 13] returned an IC50 of 157 nM.

For a further experiment, the system named is MCF-10A. The experiment can be described thus: Cell viability assay (CellTiter Glo), non-tumorigenic breast epithelial cell line MCF-10A. The class given is cell-based. The note with it: Homo sapiens, 96 hours. The method, boiled down: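 MCF-10A cells (500-5,000/well) treated 96 h at 37° C with 9-point 3-fold dilutions from up to 30 μM, ≤0.25% DMSO, in duplicate. Viability by CellTiter Glo luminescence; % inhibition versus DMSO-only wells gave IC50, relative IC50 or % top inhibition. Paclitaxel positive control.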
With `COC(=O)[C@H]1Cc2c([nH]c3ccccc23)[C@H](c2ccc(C(=O)OC[C@]34C[C@H]5C[C@H](C[C@H](C5)C3)C4)cc2)N1C(=O)CCl` [Example 6], half-maximal inhibition (IC50) required 3760 nM.

With `COC(=O)[C@H]1Cc2c([nH]c3ccccc23)[C@H](c2ccc(C(=O)NC(C)(C)C)cc2)N1C(=O)CCl` [Example 9], inhibition was half-maximal at 2270 nM (IC50).

In turn, `COC(=O)[C@H]1Cc2c([nH]c3ccccc23)[C@H](c2ccc(C(=O)NC(C(=O)O)C(C)(C)C)cc2)N1C(=O)CCl` (some centres unmarked) [Example 10] registered a half-maximal inhibitory concentration (IC50) of more than 30000 nM.

With `COC(=O)[C@H]1Cc2c([nH]c3ccccc23)[C@H](c2ccc(OC(C)=O)cc2)N1C(=O)CCl` [Example 12], the IC50 was determined as 1420 nM.

As for `COC(=O)[C@H]1Cc2c([nH]c3ccccc23)[C@H](c2ccc(OC(=O)C(C)(C)C)cc2)N1C(=O)CCl` [Example 13], half-maximal inhibition (IC50) required 3050 nM.

The test system of another experiment is 143B. The experiment in a line: Cell viability assay (CellTiter Glo), osteosarcoma 143B. Particulars: Homo sapiens, 96 h, osteosarcoma, 96 hours, CellTiter Glo, read-out: IC50 143B. The class given is cell-based. How it is done: as §1, §2
For `COC(=O)c1ccc([C@H]2c3[nH]c4ccccc4c3C[C@H](C(=O)OC(C)(C)C)N2C(=O)CCl)cc1` [Example 2], the IC50 is 153 nM.

For `COC(=O)[C@H]1Cc2c([nH]c3ccccc23)[C@H](c2ccc(C(=O)OC[C@]34C[C@H]5C[C@H](C[C@H](C5)C3)C4)cc2)N1C(=O)CCl` [Example 6], the IC50 was 87 nM.

As to `CNC(=O)c1ccc([C@H]2c3[nH]c4ccccc4c3C[C@H](C(=O)OC)N2C(=O)CCl)cc1` [Example 7], the IC50 amounted to 273 nM.

As for `COC(=O)[C@H]1Cc2c([nH]c3ccccc23)[C@H](c2ccc(C(=O)N(C)C)cc2)N1C(=O)CCl` [Example 8], the IC50 was determined as 143 nM.

As to `COC(=O)[C@H]1Cc2c([nH]c3ccccc23)[C@H](c2ccc(C(=O)NC(C)(C)C)cc2)N1C(=O)CCl` [Example 9], the IC50 came out at 32 nM.

`COC(=O)[C@H]1Cc2c([nH]c3ccccc23)[C@H](c2ccc(C(=O)NC(C(=O)O)C(C)(C)C)cc2)N1C(=O)CCl` (some centres unmarked) [Example 10]: the IC50 was 4410 nM.

For `CC(C)(C)OC(=O)[C@H]1Cc2c([nH]c3ccccc23)[C@H](c2ccc([N+](=O)[O-])cc2)N1C(=O)CCl` [Example 11], the IC50 amounted to 135 nM.

With `COC(=O)[C@H]1Cc2c([nH]c3ccccc23)[C@H](c2ccc(OC(C)=O)cc2)N1C(=O)CCl` [Example 12], the IC50 amounted to 81 nM.

In the case of `COC(=O)[C@H]1Cc2c([nH]c3ccccc23)[C@H](c2ccc(OC(=O)C(C)(C)C)cc2)N1C(=O)CCl` [Example 13], the IC50 came out at 109 nM.

For a further experiment, the system named is MiaPaCa-2. The experiment in a line: Cell viability assay (CellTiter Glo), pancreatic carcinoma MiaPaCa-2. It counts as cell-based. Particulars: Homo sapiens, MIA PaCa-2; pancreatic carcinoma, 96 hours, CellTiter Glo; read-out: IC50 MiaPaCa-2. The method, boiled down: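 MiaPaCa-2 and AsPC-1 cells were seeded overnight at 37 °C and exposed for 96 h to 9-point, 3-fold dilutions from up to 30 μM (final DMSO ≤0.25%). CellTiter Glo luminescence was read, and inhibition was calculated relative to DMSO-only cells. IC50, relative IC50 or % top inhibition was derived.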
Regarding `COC(=O)c1ccc([C@H]2c3[nH]c4ccccc4c3C[C@H](C(=O)OC(C)(C)C)N2C(=O)CCl)cc1` [Example 2], the IC50 stood at 60 nM.

Consider `COC(=O)[C@H]1Cc2c([nH]c3ccccc23)[C@H](c2ccc(C(=O)OC[C@]34C[C@H]5C[C@H](C[C@H](C5)C3)C4)cc2)N1C(=O)CCl` [Example 6], for which the IC50 came to 55 nM.

Consider `CNC(=O)c1ccc([C@H]2c3[nH]c4ccccc4c3C[C@H](C(=O)OC)N2C(=O)CCl)cc1` [Example 7], for which the IC50 is 119 nM.

`COC(=O)[C@H]1Cc2c([nH]c3ccccc23)[C@H](c2ccc(C(=O)N(C)C)cc2)N1C(=O)CCl` [Example 8]: the IC50 is 77 nM.

For the compound `COC(=O)[C@H]1Cc2c([nH]c3ccccc23)[C@H](c2ccc(C(=O)NC(C)(C)C)cc2)N1C(=O)CCl` [Example 9], the IC50 is 12 nM.

Turning to `COC(=O)[C@H]1Cc2c([nH]c3ccccc23)[C@H](c2ccc(C(=O)NC(C(=O)O)C(C)(C)C)cc2)N1C(=O)CCl` (some centres unmarked) [Example 10], the IC50 is 1590 nM.

As to `CC(C)(C)OC(=O)[C@H]1Cc2c([nH]c3ccccc23)[C@H](c2ccc([N+](=O)[O-])cc2)N1C(=O)CCl` [Example 11], the IC50 worked out at 91 nM.

With `COC(=O)[C@H]1Cc2c([nH]c3ccccc23)[C@H](c2ccc(OC(C)=O)cc2)N1C(=O)CCl` [Example 12], the IC50 was determined as 69 nM.

For `COC(=O)[C@H]1Cc2c([nH]c3ccccc23)[C@H](c2ccc(OC(=O)C(C)(C)C)cc2)N1C(=O)CCl` [Example 13], the IC50 came to 131 nM.
